Measured values: US20260232835A1, “AFFIBODY MICELLE DRUG CONJUGATE” (KOWA COMPANY, LTD., priority 2022, published 2026)

What was measured:
[1] = tested on: HER2 antigen-positive human cancer cell line HCC-1954; assay: Cytotoxic test (CellTiter-Glo cell viability), HCC-1954; assay type: cell-based; conditions: cultured for 4 days
Procedure: (§1) The mertansine (DM1) (Cayman CHEMICAL) was dissolved in dimethyl sulfoxide (DMSO: FUJIFILM Wako Pure Chemical Corporation) to prepare DM1 solutions of 60 μmol/L, 20 μmol/L, 6.7 μmol/L, 2.2 μmol/L, 0.74 μmol/L, 0.25 μmol/L, 0.082 μmol/L, and 0.027 μmol/L. Next, after a dilution series of 60 nmol/L, 20 nmol/L, 6.7 nmol/L, 2.2 nmol/L, 0.74 nmol/L, 0.25 nmol/L, 0.082 nmol/L, and 0.027 nmol/L were created by respectively diluting these solutions with RPMI1640 (hereinafter, RPMI1640 medium) containing 10% fetal bovine serum (Merck KGaA), these solutions were respectively added to a cell culture microplate in equal amounts to a cell culture liquid, and diluted to 1/2, thereby evaluating the cytotoxic effects thereof at a final DM1 concentration of 30 nmol/L, 10 nmol/L, 3.3 nmol/L, 1.1 nmol/L, 0.37 nmol/L, 0.12 nmol/L, 0.041 nmol/L, or 0.014 nmol/L.
(§2) A HER2 antigen-positive human gastric cancer cell line HCC-1954 (American Type Culture Collection) or a HER2 antigen-negative human breast cancer cell line MDA-MB-468 (American Type Culture Collection) was adjusted to a cell concentration of 2.0×10^4 cells/mL with the RPMI1640 medium, and 100 μL each was added to the 96 well microplate for cell culture and cultured overnight. […] The light emission amount was then measured with the plate reader (Molecular Devices, LLC.). The cell viability was calculated by the following equation. […]

[2] = tested on: human breast cancer cell line MDA-MB-468; assay: Cytotoxic test (CellTiter-Glo cell viability), MDA-MB-468; assay type: cell-based; conditions: Table 8, cultured for 4 days, read-out: IC50 HER2-negative MDA-MB-468
Procedure: as §1, §2

[3] = tested on: mouse colon cancer cell line C26; assay: Drug efficacy test in cancer-carrying nude mice with subcutaneously transplanted C26; assay type: in vivo; conditions: after 14 days from administration; tail vein, 3 times every other day; DACHPt-encapsulating SCNP 3 mg/kg in terms of Pt, oxaliplatin solution 8 mg/kg (3.9 mg/kg in terms of Pt)
Procedure: Cancer-carrying models obtained by subcutaneously transplanting a mouse colon cancer cell line C26 (American Type Culture Collection) into female nude mice (BALB/c-nu/nu, 7 weeks old; Charles River Laboratories Japan, Inc.) were used for the drug efficacy test.
The mouse colon cancer cell line C26 subcultured in a CO2 incubator was suspended in a liquid medium (Dulbecco's Modified Eagle's Medium-high glucose, Sigma-Aldrich), and injected subcutaneously in the back of each of the nude mice such that the number of cells per mouse was 1×106/100 μL. Then, the nude mice were raised for about 1 week, and then administration of the agent was started when an average value of tumor volumes was grown to about 30 mm^3. The DACHPt-encapsulating SCNP (DACHPt-encapsulating SCNP prepared using the copolymer of Example 70) was administered through the tail veins of the mice (3 times every other day), and antitumor effects were evaluated based on the tumor volumes (4 to 5 mice per 1 group). As a comparison, an oxaliplatin solution (Comparative Example 1) was used, and the oxaliplatin solution was administered in the same manner. The dose of each preparation was 8 mg/kg (3.9 mg/kg in terms of Pt) as the maximum administrable dose for the oxaliplatin solution, and 3 mg/kg in terms of Pt for the DACHPt-encapsulating SCNP. […]

Compound `COc1cc2cc(c1Cl)N(C)C(=O)C[C@H](OC(=O)[C@H](C)N(C)C(=O)CCS)[C@]1(C)O[C@H]1[C@H](C)[C@@H]1C[C@@](O)(NC(=O)O1)[C@H](OC)/C=C/C=C(\C)C2` [Comparative example 2, mertansine, reference compound] has an IC50 [1] of 0.11 nM and an IC50 [2] of 0.41 nM.
For `O=C1[O][Pt]2([NH][C@@H]3CCCC[C@H]3[NH]2)[O]C1=O` [oxaliplatin solution, oxaliplatin], the “T/C: ratio of the tumor volume of the drug administration group (T) to that of the control group (C)” value [3] was 1.1.
